Test results taken from patent US10266548B2, “Substituted benzylindazoles for use as Bub1 kinase inhibitors in the treatment of hyperproliferative diseases” (Bayer Intellectual Property GmbH, priority 2011, dated 2019).
Where a name gives a salt, the structure may show the parent alone.

target: catalytic domain of human Bub1 (amino acids 704-1085) (Homo sapiens (Human), UniProt O43683); experiment: Bub1 kinase assay (TR-FRET); assay type: biochemical; conditions: 10 μM ATP, 1 μM peptide substrate; read-out: Biological Assay 1: Bub1 kinase assay median IC50
Sequence (O43683 704-1085): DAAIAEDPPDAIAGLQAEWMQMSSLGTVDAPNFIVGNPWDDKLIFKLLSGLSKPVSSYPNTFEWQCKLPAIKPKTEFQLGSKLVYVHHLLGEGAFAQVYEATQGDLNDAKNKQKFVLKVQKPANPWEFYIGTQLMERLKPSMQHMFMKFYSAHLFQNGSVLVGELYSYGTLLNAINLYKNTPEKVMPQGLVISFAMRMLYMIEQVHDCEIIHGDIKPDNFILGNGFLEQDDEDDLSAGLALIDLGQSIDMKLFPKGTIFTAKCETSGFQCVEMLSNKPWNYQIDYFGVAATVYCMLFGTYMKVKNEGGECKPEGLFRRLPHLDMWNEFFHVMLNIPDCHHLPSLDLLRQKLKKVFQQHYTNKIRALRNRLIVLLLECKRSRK
Protocol: To this end, 100-fold concentrated compound solutions (in DMSO) were previously prepared by serial dilution (1:3.4) of 2 mM stocks in a clear low volume 384-well source microtiter plate (Greiner Bio-One, Frickenhausen, Germany), from which 50 nl of compounds were transferred into a black low volume test microtiter plate from the same supplier. […] The resulting mixture (5 μl final volume) was incubated at 22° C. during 60 min., and the reaction was stopped by the addition of 5 μl of an aqueous EDTA-solution (50 mM EDTA, in 100 mM HEPES pH 7.5 and 0.2% (w/v) bovine serum albumin) which also contained the TR-FRET detection reagents (0.2 μM streptavidin-XL665 [Cisbio Bioassays, Codolet, France] and 1 nM anti-phosho-Serine antibody [Merck Millipore, cat. #35-001] and 0.4 nM LANCE EU-W1024 labeled anti-mouse IgG antibody [Perkin-Elmer, product no. AD0077, alternatively a Terbium-cryptate-labeled anti-mouse IgG antibody from Cisbio Bioassays can be used]). The stopped reaction mixture was further incubated 1 h at 22° C. in order to allow the formation of complexes between peptides and detection reagents. Subsequently, the amount of product was evaluated by measurement of the resonance energy transfer from the Eu-chelate-antlbody complex recognizing the Phosphoserlne residue to the streptavidin-XL665 bound to the biotin moiety of the peptide. […] IC50 values were calculated by fitting the normalized inhibition data to a 4-parameter logistic equation (Minimum, Maximum, IC50, Hill; Y=Max+(Min−Max)/(1+(X/IC50)Hill)) using a Bayer-proprietary analysis software.

| IC50 | Compound |
| --- | --- |
| 76 nM | COc1cnc(-c2nn(Cc3ccc4c(c3)OC(=O)C4)c3ccccc23)nc1Nc1ccncc1 [Example 2-38-1, 6-({3-[5-methoxy-4-(pyridin-4-ylamino)pyrimidin-2-yl]-1H-indazol-1-yl}methyl)-1-benzofuran-2(3H)-one] |
| 20 nM | O=C(O)c1cnccc1Nc1nc(-c2nn(Cc3ccccc3F)c3ccccc23)ncc1O [Example 30-2, 4-({2-[1-(2-fluorobenzyl)-1H-indazol-3-yl]-5-hydroxypyrimidin-4-yl}amino)pyridine-3-carboxylic acid] |
| 240 nM | COc1cnc(-c2nn(Cc3c(Cl)cccc3Cl)c3ccccc23)nc1N(Cc1c(Cl)cccc1Cl)c1ccncc1 [Example 2-9-2, N-(2,6-dichlorobenzyl)-2-[1-(2,6-dichlorobenzyl)-1H-indazol-3-yl]-5-methoxy-N-(pyridin-4-yl)pyrimidin-4-amine] |
| 3700 nM | COc1cnc(-c2nn(Cc3ccc(C(=O)O)cc3Cl)c3ccccc23)nc1Nc1ccncc1 [Example 28-1, 3-chloro-4-({3-[5-methoxy-4-(pyridin-4-ylamino)pyrimidin-2-yl]-1H-indazol-1-yl}methyl)benzoic acid] |
| 6900 nM | COc1cnc(-c2nn(Cc3c(F)cc(OC(F)F)cc3F)c3ccccc23)nc1N(Cc1c(F)cc(OC(F)F)cc1F)c1ccncc1 [Example 2-39-2, N-[4-(difluoromethoxy)-2,6-difluorobenzyl]-2-{1-[4-(difluoromethoxy)-2,6-difluorobenzyl]-1H-indazol-3-yl}-5-methoxy-N-(pyridin-4-yl)pyrimidin-4-amine] |
| 210 nM | COc1cnc(-c2nn(Cc3c(F)cccc3F)c3ccccc23)nc1N(Cc1c(F)cccc1F)c1ccncc1 [Example 2-7-2, N-(2,6-difluorobenzyl)-2-[1-(2,6-difluorobenzyl)-1H-indazol-3-yl]-5-methoxy-N-(pyridin-4-yl)pyrimidin-4-amine] |
| 1300 nM | CCOc1cc(F)c(Cn2nc(-c3nccc(N(c4ccncc4)C(F)F)n3)c3ccccc32)c(F)c1 [Example 35-1, N-(difluoromethyl)-2-[1-(4-ethoxy-2,6-difluorobenzyl)-1H-indazol-3-yl]-N-(pyridin-4-yl)pyrimidin-4-amine] |
| 24 nM | CCOc1cc(F)c(Cn2nc(-c3ncc(OCC4CN(C(=O)OC(C)(C)C)CCO4)c(Nc4ccncc4)n3)c3ccccc32)c(F)c1 (centres unmarked) [Example 4-11, tert-butyl 2-[({2-[1-(4-ethoxy-2,6-difluorobenzyl)-1H-indazol-3-yl]-4-(pyridin-4-ylamino)pyrimidin-5-yl}oxy)methyl] morpholine-4-carboxylate] |
| 330 nM | Fc1ccccc1Cn1nc(-c2ncc(OCCc3nnn[nH]3)c(N(CCc3nnn[nH]3)c3ccncc3)n2)c2ccccc21 [Example 4-5-2, 2-[1-(2-fluorobenzyl)-1H-indazol-3-yl]-N-(pyridin-4-yl)-5-[2-(1H-tetrazol-5-yl)ethoxy]-N-[2-(1H-tetrazol-5-yl)ethyl]pyrimidin-4-amine] |

| Compound | IC50 |
| --- | --- |
| CCOc1ccc(Cn2nc(-c3ncc(OC)c(Nc4ccncc4)n3)c3ccccc32)c(F)c1F [Example 2-14-1, 2-[1-(4-ethoxy-2,3-difluorobenzyl)-1H-indazol-3-yl]-5-methoxy-N-(pyridin-4-yl)pyrimidin-4-amine] | 8.3 nM |
| COc1cnc(-c2nn(Cc3c(Cl)ccc(N)c3Cl)c3ccccc23)nc1Nc1ccncc1 [Example 40-1, 2-[1-(3-amino-2,6-dichlorobenzyl)-1H-indazol-3-yl]-5-methoxy-N-(pyridin-4-yl)pyrimidin-4-amine] | 39 nM |
| COc1cnc(-c2nn(Cc3cccc(-n4cccc4)c3)c3ccccc23)nc1Nc1ccncc1 [Example 2-1-3, 5-methoxy-N-(pyridin-4-yl)-2-{1-[3-(1H-pyrrol-1-yl)benzyl]-1H-indazol-3-yl}pyrimidin-4-amine] | 120 nM |
| COc1cnc(-c2nn(Cc3ccccc3Br)c3ccccc23)nc1N(Cc1ccccc1Br)c1ccncc1 [Example 2-21-2, N-(2-bromobenzyl)-2-[1-(2-bromobenzyl)-1H-indazol-3-yl]-5-methoxy-N-(pyridin-4-yl)pyrimidin-4-amine] | 20000 nM |
| CCOc1cc(F)c(Cn2nc(-c3ncc(OC[C@@H]4CCC(=O)N4)c(Nc4ccncc4)n3)c3ccccc32)c(F)c1 [Example 4-18, formic acid - (5S)-5-[({2-[1-(4-ethoxy-2,6-difluorobenzyl)-1H-indazol-3-yl]-4-(pyridin-4-ylamino)pyrimidin-5-yl}oxy)methyl] pyrrolidin-2-one (1:1)] | 12 nM |

system: HeLa cells; experiment: Proliferation assay (HeLa cell line); assay type: cell-based; conditions: 4 days, crystal violet, read-out: Biological Assay 2: Proliferation assay (HeLa cell line) median IC50
Protocol: Cultivated tumor cells (cells were ordered from ATCC, except HeLa-MaTu and HeLa-MaTu-ADR, which were ordered from EPO-GmbH, Berlin) were plated at a density of 1000 to 5000 cells/well, depending on the growth rate of the respective cell line, in a 96-well multititer plate in 200 μL of their respective growth medium supplemented 10% fetal calf serum. After 24 hours, the cells of one plate (zero-point plate) were stained with crystal violet (see below), while the medium of the other plates was replaced by fresh culture medium (200 μl), to which the test substances were added in various concentrations (0 μM, as well as in the range of 0.001-10 μM; the final concentration of the solvent dimethyl sulfoxide was 0.5%). The cells were incubated for 4 days in the presence of test substances. Cell proliferation was determined by staining the cells with crystal violet: the cells were fixed by adding 20 μl/measuring point of an 11% glutaric aldehyde solution for 15 minutes at room temperature. After three washing cycles of the fixed cells with water, the plates were dried at room temperature. The cells were stained by adding 100 μl/measuring point of a 0.1% crystal violet solution (pH 3.0). After three washing cycles of the stained cells with water, the plates were dried at room temperature. The dye was dissolved by adding 100 μl/measuring point of a 10% acetic acid solution. […] The change of cell number, in percent, was calculated by normalization of the measured values to the aborbtion values of the zero-point plate (=0%) and the absorbtion of the untreated (0 μm) cells (=100%). The IC50 values were determined by means of a 4 parameter fit using the company's own software.

| IC50 | Compound |
| --- | --- |
| 440 nM | CCOc1cc(F)c(Cn2nc(-c3ncc(OCC[S+](C)[O-])c(Nc4ccncc4)n3)c3ccccc32)c(F)c1 (single isomer, unassigned) [Example 36-2, 2-[1-(4-ethoxy-2,6-difluorobenzyl)-1H-indazol-3-yl]-5-[2-(methylsulfinyl)ethoxy]-N-(pyridin-4-yl)pyrimidin-4-amine] |
| 3300 nM | CCOc1cc(F)c(Cn2nc(-c3ncc(OCC[S+](C)[O-])c(Nc4ccncc4)n3)c3ccccc32)c(F)c1 (single isomer, unassigned) [Example 36-1, 2-[1-(4-ethoxy-2,6-difluorobenzyl)-1H-indazol-3-yl]-5-[2-(methylsulfinyl)ethoxy]-N-(pyridin-4-yl)pyrimidin-4-amine] |
| 430 nM | CCOc1cc(F)c(Cn2nc(-c3ncc(OCC[S+](C)[O-])c(Nc4ccncc4)n3)c3ccccc32)c(F)c1 (single isomer, unassigned) [Example 36-3, 2-[1-(4-ethoxy-2,6-difluorobenzyl)-1H-indazol-3-yl]-5-[2-(methylsulfinyl)ethoxy]-N-(pyridin-4-yl)pyrimidin-4-amine] |

same assay, conditions: Homo sapiens, 96 h, 4 days, crystal violet, read-out: Biological Assay 2: Proliferation assay (HeLa cell line) median IC50

| IC50 | Compound |
| --- | --- |
| ≥ 10000 nM | COc1cnc(-c2nn(Cc3ccc4c(c3)OC(=O)C4)c3ccccc23)nc1Nc1ccncc1 [Example 2-38-1, 6-({3-[5-methoxy-4-(pyridin-4-ylamino)pyrimidin-2-yl]-1H-indazol-1-yl}methyl)-1-benzofuran-2(3H)-one] |
| ≥ 10000 nM | O=C(O)c1cnccc1Nc1nc(-c2nn(Cc3ccccc3F)c3ccccc23)ncc1O [Example 30-2, 4-({2-[1-(2-fluorobenzyl)-1H-indazol-3-yl]-5-hydroxypyrimidin-4-yl}amino)pyridine-3-carboxylic acid] |
| 9000 nM | CCOc1cc(F)c(Cn2nc(-c3ncc(OCCN4CCOCC4)c(Nc4ccncc4)n3)c3ccccc32)c(F)c1 [Example 4-12, 2-[1-(4-ethoxy-2,6-difluorobenzyl)-1H-indazol-3-yl]-5-[2-(morpholin-4-yl)ethoxy]-N-(pyridin-4-yl)pyrimidin-4-amine] |
| 4400 nM | CCOc1cc(F)c(Cn2nc(-c3ncc(OCCSC)c(Nc4ccncc4)n3)c3ccccc32)c(F)c1 [Example 4-16, 2-[1-(4-ethoxy-2,6-difluorobenzyl)-1H-indazol-3-yl]-5-[2-(methylsulfanyl)ethoxy]-N-(pyridin-4-yl)pyrimidin-4-amine] |
| 3900 nM | CCOc1cc(F)c(Cn2nc(-c3ncc(OCC(=O)N4CC(F)(F)C4)c(Nc4ccncc4)n3)c3ccccc32)c(F)c1 [Example 4-15, 1-(3,3-difluoroazetidin-1-yl)-2-({2-[1-(4-ethoxy-2,6-difluorobenzyl)-1H-indazol-3-yl]-4-(pyridin-4-ylamino)pyrimidin-5-yl}oxy)ethanone] |

same assay, conditions: Homo sapiens, 96 h, read-out: Biological Assay 2: Proliferation assay (HeLa cell line) median IC50

| Compound | IC50 |
| --- | --- |
| CCOc1ccc(Cn2nc(-c3ncc(OC)c(Nc4ccncc4)n3)c3ccccc32)c(F)c1F [Example 2-14-1, 2-[1-(4-ethoxy-2,3-difluorobenzyl)-1H-indazol-3-yl]-5-methoxy-N-(pyridin-4-yl)pyrimidin-4-amine] | 4700 nM |
| CCOc1cc(F)c(Cn2nc(-c3ncc(OCCOCCO)c(Nc4ccncc4)n3)c3ccccc32)c(F)c1 [Example 4-17, 2-[2-({2-[1-(4-ethoxy-2,6-difluorobenzyl)-1H-indazol-3-yl]-4-(pyridin-4-ylamino)pyrimidin-5-yl}oxy)ethoxy] ethanol] | 4800 nM |
| CCOc1cc(F)c(Cn2nc(-c3ncc(OCCN)c(Nc4ccncc4)n3)c3ccccc32)c(F)c1 [Example 38-1, 5-(2-aminoethoxy)-2-[1-(4-ethoxy-2,6-difluorobenzyl)-1H-indazol-3-yl]-N-(pyridin-4-yl)pyrimidin-4-amine] | 1400 nM |

same assay, conditions: read-out: Biological Assay 2: Proliferation assay (HeLa cell line) median IC50, 4 days, crystal violet

| Compound | IC50 |
| --- | --- |
| OC[C@@H](O)COc1cnc(-c2nn(Cc3ccccc3F)c3ccccc23)nc1Nc1ccncc1 [Example 15-6, (2R)-3-({2-[1-(2-fluorobenzyl)-1H-indazol-3-yl]-4-(pyridin-4-ylamino)pyrimidin-5-yl}oxy)propane-1,2-diol hydrochloride (1:1)] | ≥ 10000 nM |
